Results published in the supplement of paper PMC13380429.
± gives the standard deviation of the averaged measurements.

Columns and labels:
Details in all cases: 72 h
Vero E6 [1] = assay: drug sensitivity score (DSS) for viability; higher = more toxic; extreme values may be limits of the assay
HepG2 [2] = assay: as above
Calu-3 [3] = assay: as above
Caco-2 [4] = assay: as above
U2OS [5] = assay: as above
Vero E6 [6] = assay: cell viability relative to DMSO; higher = less toxic
HepG2 [7] = assay: as above
Calu-3 [8] = assay: as above
Caco-2 [9] = assay: as above
U2OS [10] = assay: as above
Vero E6 [11] = assay: relative viability EC50 (midpoint between 100% and the lowest measured viability); higher = less toxic
HepG2 [12] = assay: as above
Calu-3 [13] = assay: as above
Caco-2 [14] = assay: as above
U2OS [15] = assay: as above

Row | Structure (SMILES) | drug sensitivity score (Vero E6 [1]) | drug sensitivity score (HepG2 [2]) | drug sensitivity score (Calu-3 [3]) | drug sensitivity score (Caco-2 [4]) | drug sensitivity score (U2OS [5]) | cell viability (Vero E6 [6]; 1 nM) [%] | cell viability (Vero E6 [6]; 10 nM) [%] | cell viability (Vero E6 [6]; 100 nM) [%] | cell viability (Vero E6 [6]; 1000 nM) [%] | cell viability (Vero E6 [6]; 10000 nM) [%] | cell viability (HepG2 [7]; 1 nM) [%] | cell viability (HepG2 [7]; 10 nM) [%] | cell viability (HepG2 [7]; 100 nM) [%] | cell viability (HepG2 [7]; 1000 nM) [%] | cell viability (HepG2 [7]; 10000 nM) [%] | cell viability (Calu-3 [8]; 1 nM) [%] | cell viability (Calu-3 [8]; 10 nM) [%] | cell viability (Calu-3 [8]; 100 nM) [%] | cell viability (Calu-3 [8]; 1000 nM) [%] | cell viability (Calu-3 [8]; 10000 nM) [%] | cell viability (Caco-2 [9]; 1 nM) [%] | cell viability (Caco-2 [9]; 10 nM) [%] | cell viability (Caco-2 [9]; 100 nM) [%] | cell viability (Caco-2 [9]; 1000 nM) [%] | cell viability (Caco-2 [9]; 10000 nM) [%] | cell viability (U2OS [10]; 1 nM) [%] | cell viability (U2OS [10]; 10 nM) [%] | cell viability (U2OS [10]; 100 nM) [%] | cell viability (U2OS [10]; 1000 nM) [%] | cell viability (U2OS [10]; 10000 nM) [%] | relative viability EC50 (Vero E6 [11]) [µM] | relative viability EC50 (HepG2 [12]) [µM] | relative viability EC50 (Calu-3 [13]) [µM] | relative viability EC50 (Caco-2 [14]) [µM] | relative viability EC50 (U2OS [15]) [µM]
1 | CCc1c(C(=O)Nc2cc(S(=O)(=O)N(CC)CC)ccc2O)[nH]c(C)c1C(C)=O [XD-14] | 0.2 | 0.5 | 0 | 0.7 | 0.1 | 96 | 102 | 89.5 | 91.5 | 95.9 | 96.8 | 106 | 116 | 97.6 | 84.6 | 111 | 89.2 | 104 | 103 | 108 | 101 | 93.5 | 97.2 | 98.8 | 80.8 | 99.3 | 93 | 95.6 | 100 | 87.4 | > 10 | > 10 | > 10 | > 10 | > 10
2 | CC[C@@H](C)Nc1cc(C(=O)N[C@H]2C[C@H]3CC[C@@H](C2)N3c2ccc(C(=O)C3CC3)cn2)c(C)cc1C(N)=O [XL888] | 12.7 | 30.8 | 16.8 | 17.3 | 24.2 | 104 | 104 | 99.8 | 30.4 | 52.4 | 108 | 93.4 | 4.8 | 1.3 | 1 | 92.4 | 101 | 53.6 | 43.1 | 38.7 | 104 | 94.3 | 59.3 | 32.8 | 35.2 | 97.2 | 104 | 43.4 | 4.3 | 3.4 | 0.315 | 0.0285 | 0.0636 | 0.071 | 0.0872
3 | N=C(N)S/C=C\C(=O)O [ZAPA] | 0 | 0 | 0 | 0 | 0 | 98.3 | 97.1 | 94.8 | 95 | 106 | 96 | 95.5 | 104 | 89.3 | 102 | 83 | 103 | 101 | 103 | 95.5 | 91.1 | 96 | 91.3 | 104 | 106 | 92.8 | 97.7 | 95.6 | 100 | 101 | > 10 | > 10 | > 10 | > 10 | > 10
4 | Cc1ccc(-c2ccc(C)cn2)nc1 [abametapir] | 0 | 0 | 0 | 0 | 0 | 103 | 104 | 101 | 93.4 | 105 | 119 | 110 | 100 | 103 | 98.9 | 106 | 92.1 | 95.6 | 92.6 | 96.3 | 95.9 | 86.7 | 79.8 | 87 | 93.3 | 98.8 | 96.3 | 97.8 | 96.6 | 99 | > 10 | > 10 | > 10 | > 10 | > 10
5 | CC(=O)O[C@@H]1CC[C@@]2(C)[C@@H](CC[C@]3(C)[C@@H]2C(=O)C=C2[C@@H]4[C@@H](C)[C@H](C)CC[C@]4(C)CC[C@]23C)[C@@]1(C)C(=O)O [acetyl-11-keto-beta-boswellic-acid] | 0 | 0 | 0 | 0 | 0 | 104 ± 7.3 | 94.4 ± 5 | 99.7 ± 8 | 102 ± 3.4 | 104 ± 3.3 | 109 ± 7.6 | 94 ± 7.4 | 106.6 ± 0.85 | 103 ± 5.4 | 101 ± 8 | 93.5 ± 0.71 | 108 ± 3.8 | 102 ± 7.1 | 101 ± 22 | 96.5 ± 3.5 | 94 ± 1.4 | 109 ± 2.7 | 87.8 ± 15 | 98.1 ± 18 | 96.5 ± 4.7 | 101 ± 2.5 | 98.5 ± 2.3 | 98.7 ± 3.1 | 102 ± 4.6 | 99.5 ± 1.1 | > 10 | > 10 | > 10 | > 10 | > 10
6 | CC1(c2ccccc2)OC(C(=O)O)=CC1=O (stereo not given) [acifran] | 0 | 0 | 0 | 0 | 0 | 98.9 | 96.1 | 96.9 | 98.5 | 98 | 90.3 | 91.9 | 97.8 | 108 | 101 | 94.9 | 93.6 | 85.5 | 95.3 | 99.6 | 90.8 | 95.3 | 95.8 | 105 | 98.9 | 103 | 97.9 | 103 | 97.4 | 104 | > 10 | > 10 | > 10 | > 10 | > 10
